Laboratory results reported in PubChem BioAssay (NCI).
Where “and” joins values, the source holds several entries; their conditions need not be identical. Identical values can stand only once.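 Step 1: Grow cells in 96-well plates. Step 2: Expose to compound for 48 hours at 5 concentrations. Step 3: Interpolate endpoints linearly; if unreached, use highest concentration. Here, GI50 denotes the concentration required for 50% inhibition of growth. At the TGI there is no net growth.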

Legend:
Test in all cases: growth of human tumour cells (NCI), 48 h
MDA-N = tested on: MDA-N
DMS 114 small cell lung = tested on: DMS 114 small cell lung
DMS 273 small cell lung = tested on: DMS 273 small cell lung
KM20L2 colon = tested on: KM20L2 colon
LXFL 529 NSCLC = tested on: LXFL 529 NSCLC
M19-MEL melanoma = tested on: M19-MEL melanoma
SNB-78 CNS = tested on: SNB-78 CNS
XF 498 CNS = tested on: XF 498 CNS
RXF-631 renal = tested on: RXF-631 renal
SN12K1 renal = tested on: SN12K1 renal

| SMILES | TGI (MDA-N) | TGI (DMS 114 small cell lung) [µM] | TGI (DMS 273 small cell lung) [µM] | TGI (KM20L2 colon) [µM] | TGI (LXFL 529 NSCLC) [µM] | TGI (M19-MEL melanoma) [µM] | TGI (SNB-78 CNS) [µM] | TGI (XF 498 CNS) [µM] | TGI (RXF-631 renal) [µM] | further results |
| --- | --- | --- | --- | --- | --- | --- | --- | --- | --- | --- |
| N#CC(C(=O)O)C(c1c(Cl)cccc1Cl)C(C#N)C(=O)O (stereo not given) | > 100 µM | – | – | – | – | – | – | – | – | – |
| S=C1SCN(C2CCCCCCCCCCC2)CN1C1CCCCCCCCCCC1 | > 100 µM | – | – | – | – | – | – | – | – | – |
| O=C(O)CNC(=O)C1NC(C(F)(F)F)(C(F)(F)F)OC1(C(F)(F)F)C(F)(F)F (stereo not given) | > 100 µM | – | – | – | – | – | – | – | – | – |
| CC(=O)OC1(C#N)CC2OC1C1N=NN(C(=O)OC(C)(C)C)C21 (stereo not given) | – | > 74.9 | > 100 | > 100 | > 100 | > 100 | > 77 | > 100 | – | – |
| Cc1ccc(-c2cc(=O)c3cc(C)c(C)c(C(=O)O)c3o2)cc1[N+](=O)[O-] | – | > 100 | > 100 | > 100 | > 100 | > 100 | > 100 | – | – | – |
| COC(=O)c1ccc(/C=C/S(=O)(=O)c2ccccc2)cc1 | – | > 100 | > 100 | > 100 | > 100 | > 100 | > 100 | > 100 | > 100 | – |
| C[C@H](C(O)CC(=O)C(C)(C)O)[C@H]1CC[C@@]2(C)[C@@H]3CC[C@H]4C(C)(C)[C@@H](OC5OC(COC6OC(CO)C(O)C(O)C6O)C(O)C(O)C5O)CC[C@]4(C)C3=CC[C@]12C (stereo not given in full) | > 100 µM | – | – | – | – | – | – | – | – | – |
| CC(C)Cc1ccc(C(C)/C=C2\CCC(CN3CCCCC3)C2=O)cc1 (stereo not given) | 12.8 µM | 4.78 | 7.2 | 29.1 | 3.55 | 6.08 | 35.1 | 16 | – | – |
| CCCCCN(CCCCC)C(=O)[C@H](CCC(=O)OCc1ccccc1)NC(=O)c1cc2ccccc2[nH]1 | – | > 100 | > 100 | > 100 | > 100 | – | > 100 | – | > 100 | – |
| CC(CCC(=O)O)c1ccc(Br)cc1 (stereo not given) | – | > 100 | > 100 | > 100 | > 100 | > 100 | > 100 | – | – | – |
| CCN(CC)CCC(=O)N1C/C(=C/c2ccccc2)C(=O)/C(=C\c2ccccc2)C1 | 2.45 µM | 4.54 | 3.15 | 3.5 | 3.27 | 3.68 | – | 7.57 | – | – |
| N.N.NCCCCCN.O=C([O-])CC(=O)[O-].O=C([O-])CC(=O)[O-].[Pt+4].[Pt+4] | – | – | – | > 100 | > 100 | – | – | – | – | GI50 (KM20L2 colon): > 100 µM; GI50 (LXFL 529 NSCLC): > 100000 nM |
| N/C(=N\N=C\c1ccc(O)c(O)c1)NO | – | > 100 | > 100 | > 100 | > 100 | > 100 | > 100 | > 100 | > 100 | – |
| CC1(C)Oc2ccccc2[N+]([O-])=C1c1ccccc1 | – | > 100 | > 100 | > 100 | > 100 | > 100 | > 100 | – | > 100 | – |
| CCOc1ccc(N=Cc2ccc3ccccc3n2)cc1 | – | – | > 100 | > 100 | > 100 | > 100 | > 100 | > 100 | > 100 | – |
| Fc1ccc2c(c1)cc1ccc3cccc4ccc2c1c34 | – | > 100 | > 100 | > 100 | > 100 | > 100 | > 100 | > 100 | > 100 | – |
| CCOC(=O)NC(=O)c1cn(C2OC(COC(=O)CCCCCCCCC(=O)OCC3OC(n4cc(C(=O)NC(=O)OCC)c(=O)[nH]c4=O)C4OC(C)(C)OC34)C3OC(C)(C)OC32)c(=O)[nH]c1=O (stereo not given) | – | > 100 | > 100 | > 100 | > 100 | 86.2 | > 100 | > 100 | > 100 | – |
| COc1ccc(/C=C2\CCc3ccccc3C2=O)cc1OC | – | 47.1 | – | > 100 | > 100 | > 100 | > 100 | 56.5 | – | – |
| Nc1nc(CC2(O)CCCCC2)cc(-c2ccccc2)n1 | – | > 70.6 | > 66 | > 53.7 | > 100 | > 72.8 | > 100 | – | > 100 | – |
| CCOC(=O)C(=O)C(/C(=N/N(C)C)C(=O)Nc1ccc(C)cc1C)c1nc2ccccc2[nH]c1=O (stereo not given) | > 100 µM | – | – | – | – | – | – | – | – | – |
| O=C(COC(=O)c1cccc2c(=O)c3ccccc3[nH]c12)Nc1ccc(S(=O)(=O)Nc2ncccn2)cc1 | – | > 100 | > 100 | > 100 | > 100 | > 100 | 74.4 | > 100 | > 100 | – |
| CCC(C)(C)NS(=O)(=O)c1ccccc1 | – | > 100 | > 100 | > 100 | > 100 | > 100 | > 100 | > 100 | – | – |
| CCCCCCC(O)C(O)CCC(O)C1CCC(CCCCC(O)CC2=CC(C)OC2=O)O1 (stereo not given) | 29.1 µM | – | – | – | – | – | – | – | – | GI50 (MDA-N): 12.3 µM |

| SMILES | TGI (MDA-N) | TGI (DMS 114 small cell lung) [µM] | TGI (DMS 273 small cell lung) [µM] | TGI (KM20L2 colon) [µM] | TGI (LXFL 529 NSCLC) [µM] | TGI (M19-MEL melanoma) [µM] | TGI (SNB-78 CNS) [µM] | TGI (XF 498 CNS) [µM] | TGI (RXF-631 renal) [µM] | further results |
| --- | --- | --- | --- | --- | --- | --- | --- | --- | --- | --- |
| Clc1nc(-c2ccccc2)nc(Cl)c1Cl | 26.6 µM | – | – | – | – | – | – | – | – | – |
| COc1ccc(C[C@H]2NC[C@H](O)[C@H]2OC(C)=O)cc1 | 0.195 µM | – | – | – | – | – | – | – | – | – |
| COc1cc2ccc3c4cc(OC)c(OC(C)C)cc4c[n+](C)c3c2cc1OC | – | 41.4 | – | > 100 | > 100 | > 100 | – | – | – | – |
| CCCCCCC/C=C1\CCC(CN(C)C)C1=O (stereo not given) | 26.8 µM | – | – | 34.6 | 20.8 | – | 35.8 | 35.4 | > 71.4 | – |
| CCN(CC)/[N+]([O-])=N/OCC(C)O (stereo not given) | – | > 100 | > 100 | – | – | > 100 | > 100 | > 100 | > 100 | – |
| CN[C@H]1CC[C@]23C[C@]24CC[C@]2(C)[C@@H]([C@H](C)N(C)C)CC[C@@]2(C)[C@@H]4CC[C@H]3C1(C)C | 29.2 µM | – | – | – | – | – | – | – | – | – |
| CNC(=S)N(C1CCCCC1)C1CCCCC1 | > 100 µM | – | – | – | – | – | – | – | – | – |
| NC(N)=NC(N)=Nc1ccc(S(N)(=O)=O)cc1 | > 100 µM | – | – | – | – | – | – | – | – | – |
| CSC1SCC2C(=O)N(C)C(C(C)C)C(=O)OCC(NC(=O)c3cnc4ccccc4n3)C(=O)NC(C)C(=O)N(C)C1C(=O)N(C)C(C(C)C)C(=O)OCC(NC(=O)c1cnc3ccccc3n1)C(=O)NC(C)C(=O)N2C (stereo not given) | – | 8.38e-06 | – | – | – | – | – | 5.67e-05 | – | GI50 (DMS 114 small cell lung): 0.00345 nM; GI50 (DMS 273 small cell lung): 0.04 nM; GI50 (KM20L2 colon): 5.29e-06 µM; GI50 (SN12K1 renal): 0.567 nM; TGI (SN12K1 renal): 24.8 nM and 80.1 nM; GI50 (SNB-78 CNS): 8.96e-07 µM; GI50 (XF 498 CNS): 0.0306 nM |
| COc1cc(/C=C2\Cc3ccccc3C2=O)cc(OC)c1OC | – | > 100 | > 100 | > 100 | > 100 | > 100 | > 100 | > 100 | > 100 | – |
| C/C(=N\NS(=O)(=O)c1c(C)cc(C)cc1C)c1ccc[n+]([O-])n1 | – | 36.8 | 34.8 | 54.6 | 23.4 | 29 | 68.3 | – | 93 | – |
| CC(C)(C)C1CCC(=O)C(C(O)CC2CC(=O)N(c3ccccc3)C(=O)C2)C1 (stereo not given) | – | > 100 | > 100 | > 100 | > 100 | > 100 | > 100 | > 100 | > 100 | – |
| CC(C)=CCC/C(C)=C/CC/C(C)=C/C1CCC(=O)C1(C)C (stereo not given) | – | 28.2 | – | 31.9 | 31.1 | 38 | 53.4 | 32.3 | > 100 | – |
| CC(=O)Oc1cc(Cl)c(OC(C)=O)c2c(OC(C)=O)c(C)c(O[Si](C)(C)C(C)(C)C)cc12 | – | 15.1 | 20 | 32.1 | – | – | 9.82 | 32.8 | – | – |
| COC(=O)C1=C(O)c2cc3c(cc2[C@H](c2cc(OC)c(OC)c(OC)c2)C1)OCO3 | – | > 100 | > 100 | > 100 | > 100 | 10.1 | > 100 | > 100 | > 100 | – |
| CN(C)C1C(=O)C(C(N)=O)=C(O)C2(O)C(=O)C3=C(O)c4c(O)cccc4C(C)(O)C3CC12 (stereo not given) | 38.9 µM and > 100 µM | – | – | – | – | – | – | – | – | GI50 (MDA-N): 17.8 µM and > 100 µM |
| COc1c(Cl)[c]([Hg][O]C(C)=O)c(NCC(C)=O)c(OC)[c]1[Hg][O]C(C)=O | – | 26.9 | – | > 100 | 3.68 | 30.1 | 43.2 | – | 3.88 | GI50 (DMS 114 small cell lung): 4120 nM; GI50 (KM20L2 colon): 28.3 µM; GI50 (LXFL 529 NSCLC): 1060 nM; GI50 (M19-MEL melanoma): 14.8 µM; GI50 (RXF-631 renal): 1220 nM; GI50 (SNB-78 CNS): 15.9 µM |
| CCC(=O)Nc1ncnc2ncn(C(=O)CC)c12 | > 100 µM | – | – | – | – | – | – | – | – | – |
| [N-]=[N+]=NC1C2CC3CC(C2)CC1C3 (stereo not given) | – | > 100 | > 100 | > 100 | > 100 | > 100 | > 100 | – | > 100 | – |
| Cn1cc2ccccc2c1-c1nc(F)nc(Nc2ccc(N)cc2)n1 | – | 38.1 | 25.6 | 47.4 | 30.9 | 25.2 | 77.7 | 30 | 38.2 | – |
| OCCCCCNc1ccnc2cc(Cl)ccc12 | – | > 100 | > 100 | > 100 | > 100 | > 100 | > 100 | > 100 | – | – |
| Cc1nc(-n2nc(-c3ccccc3)cc2-c2ccccc2)sc1C(=O)/C=C/c1ccc(Cl)cc1 | – | 28.3 | > 100 | 77.6 | – | 39.6 | > 100 | – | – | – |
